Laboratory results as given in PubChem BioAssay AID256 (DTP/NCI, 2004).
Several values for one entry are separate records, joined by “and”; a condition that tells them apart may be missing. Equal entries are not always repeated. Inconclusive results and toxic doses are left out. The calls were made as follows: active = survival T/C of 150% or more; inactive = T/C below 125% in these data.

Tested on: CD2F1 mice, L1210 leukemia ip, survival T/C
Assay: NCI In Vivo Anticancer Drug Screen. Data for tumor model L1210 Leukemia (intraperitoneal) in CD2F1 (CDF1) mice
Details: higher = longer survival
Procedure, shortened: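 Tumor-bearing mice (transplanted tumor) were split into treated and vehicle control groups, and the measured endpoint of each treated group was divided by that of its vehicle controls.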

[1] = endpoint: mean survival time, dose: 25.0 mg/kg/injection, schedule: Q04DX003 (ip), vehicle: saline
[2] = endpoint: mean survival time, dose: 50.0 mg/kg/injection, schedule: Q04DX003 (ip), vehicle: saline
[3] = endpoint: mean survival time, dose: 100.0 mg/kg/injection, schedule: Q04DX003 (ip), vehicle: saline
[4] = endpoint: mean survival time, dose: 12.5 mg/kg/injection, schedule: Q01DX009 (ip), vehicle: saline with Tween-80
[5] = endpoint: mean survival time, dose: 25.0 mg/kg/injection, schedule: Q01DX009 (ip), vehicle: saline with Tween-80
[6] = endpoint: mean survival time, dose: 100.0 mg/kg/injection, schedule: Q04DX003 (ip), vehicle: saline with Tween-80
[7] = endpoint: mean survival time, dose: 200.0 mg/kg/injection, schedule: Q04DX003 (ip), vehicle: saline with Tween-80
[8] = endpoint: mean survival time, dose: 400.0 mg/kg/injection, schedule: Q04DX003 (ip), vehicle: saline with Tween-80
[9] = endpoint: mean survival time, dose: 50.0 mg/kg/injection, schedule: Q01DX009 (ip), vehicle: saline with Tween-80
[10] = endpoint: mean survival time, dose: 100.0 mg/kg/injection, schedule: Q01DX009 (ip), vehicle: saline with Tween-80
[11] = endpoint: mean survival time, dose: 200.0 mg/kg/injection, schedule: Q01DX009 (ip), vehicle: saline with Tween-80
[12] = endpoint: mean survival time, dose: 200.0 mg/kg/injection, schedule: Q04DX003 (ip), vehicle: saline
[13] = endpoint: mean survival time, dose: 400.0 mg/kg/injection, schedule: Q04DX003 (ip), vehicle: saline
[14] = endpoint: mean survival time, dose: 100.0 mg/kg/injection, schedule: Q01DX001 (ip), vehicle: saline
[15] = endpoint: mean survival time, dose: 200.0 mg/kg/injection, schedule: Q01DX001 (ip), vehicle: saline
[16] = endpoint: mean survival time, dose: 400.0 mg/kg/injection, schedule: Q01DX001 (ip), vehicle: saline
[17] = endpoint: mean survival time, dose: 100.0 mg/kg/injection, schedule: Q04DX002 (ip), vehicle: saline
[18] = endpoint: mean survival time, dose: 200.0 mg/kg/injection, schedule: Q04DX002 (ip), vehicle: saline

Measured: T/C

Cc1nc(C(N)=O)c(=O)[nH]c1C
inactive: [1] 102 % of control | [2] 107 % of control | endpoint: mean survival time, dose: 100.0 mg/kg/injection, schedule: Q01DX009 (ip), vehicle: saline 111 % of control | [3] 101 % of control | endpoint: mean survival time, dose: 200.0 mg/kg/injection, schedule: Q01DX009 (ip), vehicle: saline 100 % of control | endpoint: mean survival time, dose: 400.0 mg/kg/injection, schedule: Q01DX009 (ip), vehicle: saline 97 % of control

CC/C(C)=C1\OC(=O)C(C)C(O)C(Cc2cccnc2)NC(=O)C(NC(=O)c2ncccc2O)C(C)OC1=O (stereo not given)
inactive: endpoint: mean survival time, dose: 3.13 mg/kg/injection, schedule: Q01DX009 (ip), vehicle: saline with Tween-80 96 % of control | endpoint: mean survival time, dose: 6.25 mg/kg/injection, schedule: Q01DX009 (ip), vehicle: saline with Tween-80 95 % of control | [4] 96 % of control | [5] 96 % of control

N=C(N)c1cn(C2OC(CO)C(O)C2O)c2ncnc(N)c12 (stereo not given)
inactive: endpoint: mean survival time, dose: 0.63 mg/kg/injection, schedule: Q01DX009 (ip), vehicle: saline 123 % of control | endpoint: mean survival time, dose: 2.5 mg/kg/injection, schedule: Q01DX009 (ip), vehicle: saline 124 % of control

CCOC(=O)c1c2c(n3ccccc13)C(=O)c1ccccc1C2=O
inactive: endpoint: mean survival time, dose: 75.0 mg/kg/injection, schedule: Q01DX001 (ip), vehicle: saline 97 % of control | endpoint: mean survival time, dose: 150.0 mg/kg/injection, schedule: Q01DX001 (ip), vehicle: saline 103 % of control | endpoint: mean survival time, dose: 300.0 mg/kg/injection, schedule: Q01DX001 (ip), vehicle: saline 105 % of control

O=C1C(Br)=C(c2ccccc2)C(=O)C(Br)=C1c1ccccc1
inactive: endpoint: mean survival time, dose: 100.0 mg/kg/injection, schedule: Q04DX002 (ip), vehicle: Klucel (hydroxypropylcellulose) (HPC) 90 % of control | endpoint: mean survival time, dose: 200.0 mg/kg/injection, schedule: Q04DX002 (ip), vehicle: Klucel (hydroxypropylcellulose) (HPC) 86 % of control | endpoint: mean survival time, dose: 400.0 mg/kg/injection, schedule: Q04DX002 (ip), vehicle: Klucel (hydroxypropylcellulose) (HPC) 90 % of control

Nc1ccccc1-c1ccc([N+](=O)[O-])cc1
inactive: [6] 94 % of control | [7] 92 % of control | [8] 101 % of control

O=C1C(=O)c2ccccc2-c2ccccc21
inactive: [9] 98 % of control | [10] 102 % of control

C1CNC2NCCNC2N1 (stereo not given)
inactive: [10] 101 % of control | endpoint: mean survival time, dose: 100.0 mg/kg/injection, schedule: Q04DX003 (ip), vehicle: saline sonified 109 % of control | [11] 102 % of control | endpoint: mean survival time, dose: 200.0 mg/kg/injection, schedule: Q04DX003 (ip), vehicle: saline sonified 103 % of control | endpoint: mean survival time, dose: 400.0 mg/kg/injection, schedule: Q01DX009 (ip), vehicle: saline with Tween-80 108 % of control | endpoint: mean survival time, dose: 400.0 mg/kg/injection, schedule: Q04DX003 (ip), vehicle: saline sonified 115 % of control

Clc1nc2ccccc2[nH]1
inactive: [3] 98 % of control | [12] 100 % of control | [13] 90 % of control

O=C([O-])C1OC([n+]2ccccc2)C(O)C(O)C1O (stereo not given)
inactive: endpoint: median survival time, dose: 12.5 mg/kg/injection, schedule: Q01DX005 (ip), vehicle: saline 101 % of control | endpoint: median survival time, dose: 25.0 mg/kg/injection, schedule: Q01DX005 (ip), vehicle: saline 100 % of control | endpoint: median survival time, dose: 50.0 mg/kg/injection, schedule: Q01DX005 (ip), vehicle: saline 107 % of control | endpoint: median survival time, dose: 100.0 mg/kg/injection, schedule: Q01DX005 (ip), vehicle: saline 112 % of control | endpoint: median survival time, dose: 200.0 mg/kg/injection, schedule: Q01DX005 (ip), vehicle: saline 102 % of control

COC1OC(CO)C(O)C(O)C1O (stereo not given)
inactive: [14] 101 % of control and 105 % of control | [3] 97 % of control | [15] 108 % of control and 105 % of control | [12] 102 % of control | [16] 101 % of control and 105 % of control | [13] 97 % of control

CCCCCCCCCCCC(=O)N(CCCC)CCCC
inactive: [17] 103 % of control | [18] 103 % of control | endpoint: mean survival time, dose: 400.0 mg/kg/injection, schedule: Q04DX002 (ip), vehicle: saline 106 % of control

COc1ccc2cc[n+](C)c(Cc3ccc(OC)c(Oc4ccc(Cc5c(OC)ccc6cc[n+](C)cc56)cc4)c3)c2c1
inactive: endpoint: mean survival time, dose: 1.56 mg/kg/injection, schedule: Q04DX003 (ip), vehicle: other 98 % of control | endpoint: mean survival time, dose: 3.13 mg/kg/injection, schedule: Q04DX003 (ip), vehicle: other 102 % of control | endpoint: mean survival time, dose: 6.25 mg/kg/injection, schedule: Q04DX003 (ip), vehicle: other 98 % of control and 103 % of control

C[N+](C)(C)CC1CS1 (stereo not given)
inactive: endpoint: mean survival time, dose: 4.5 mg/kg/injection, schedule: Q01DX009 (ip), vehicle: saline sonified 96 % of control | endpoint: mean survival time, dose: 4.5 mg/kg/injection, schedule: Q04DX003 (ip), vehicle: saline 98 % of control | endpoint: mean survival time, dose: 9.0 mg/kg/injection, schedule: Q01DX009 (ip), vehicle: saline sonified 94 % of control | endpoint: mean survival time, dose: 9.0 mg/kg/injection, schedule: Q04DX003 (ip), vehicle: saline 98 % of control | endpoint: mean survival time, dose: 18.0 mg/kg/injection, schedule: Q01DX009 (ip), vehicle: saline sonified 92 % of control | endpoint: mean survival time, dose: 18.0 mg/kg/injection, schedule: Q04DX003 (ip), vehicle: saline 95 % of control

CCOC(=O)C(C(=O)OC)C(=O)OCC
inactive: [14] 95 % of control | [15] 103 % of control | [16] 103 % of control

O=C(Nc1ccccc1Cl)c1ccccc1CC(O)(c1ccccc1)c1ccccc1
inactive: endpoint: mean survival time, dose: 100.0 mg/kg/injection, schedule: Q01DX001 (ip), vehicle: saline sonified 102 % of control | endpoint: mean survival time, dose: 200.0 mg/kg/injection, schedule: Q01DX001 (ip), vehicle: saline sonified 109 % of control | endpoint: mean survival time, dose: 400.0 mg/kg/injection, schedule: Q01DX001 (ip), vehicle: saline sonified 86 % of control

NCC1OC(CO)C(O)C1O (stereo not given)
inactive: [3] 91 % of control | [12] 100 % of control | [13] 104 % of control

Cn1c(=O)c2[nH]c(-c3ccc4c(c3)OCO4)nc2n(C)c1=O
inactive: [6] 89 % of control | [7] 92 % of control | [8] 88 % of control

CC1CC(C(=O)O)C(S(N)(=O)=O)C1 (stereo not given)
inactive: endpoint: mean survival time, dose: 50.0 mg/kg/injection, schedule: Q04DX002 (ip), vehicle: saline 97 % of control | [17] 108 % of control | [18] 108 % of control

C1CC[N-]CC1.C1CC[N-]CC1.[Cl][Rh]([Cl])[Cl]
inactive: [4] 90 % of control | [5] 98 % of control | [9] 100 % of control | [10] 94 % of control | [11] 96 % of control

CNNCCC(=O)NC(C)C
inactive: [1] 106 % of control | [2] 103 % of control | [3] 101 % of control | [12] 91 % of control

NC(=O)c1nnc(-c2ccccn2)[nH]c1=O
inactive: endpoint: mean survival time, dose: 25.0 mg/kg/injection, schedule: Q01DX001 (ip), vehicle: Klucel (hydroxypropylcellulose) (HPC) 94 % of control | endpoint: mean survival time, dose: 50.0 mg/kg/injection, schedule: Q01DX001 (ip), vehicle: Klucel (hydroxypropylcellulose) (HPC) 98 % of control | endpoint: mean survival time, dose: 100.0 mg/kg/injection, schedule: Q01DX001 (ip), vehicle: Klucel (hydroxypropylcellulose) (HPC) 98 % of control

CC(C)N(C=C(C#N)C#N)C(C)C
inactive: [4] 91 % of control | endpoint: mean survival time, dose: 25.0 mg/kg/injection, schedule: Q01DX001 (ip), vehicle: saline with Tween-80 103 % of control | [5] 96 % of control | endpoint: mean survival time, dose: 50.0 mg/kg/injection, schedule: Q01DX001 (ip), vehicle: saline with Tween-80 107 % of control | endpoint: mean survival time, dose: 100.0 mg/kg/injection, schedule: Q01DX001 (ip), vehicle: saline with Tween-80 98 % of control

CN(C)c1ccc(/C=C/c2ccnc3ccccc23)cc1
inactive: endpoint: mean survival time, dose: 12.5 mg/kg/injection, schedule: Q01DX Z (ip), vehicle: saline 103 % of control | endpoint: mean survival time, dose: 16.0 mg/kg/injection, schedule: Q01DX008 (iv), vehicle: saline 100 % of control | endpoint: mean survival time, dose: 25.0 mg/kg/injection, schedule: Q01DX Z (ip), vehicle: saline 103 % of control | endpoint: mean survival time, dose: 32.0 mg/kg/injection, schedule: Q01DX008 (iv), vehicle: saline 100 % of control | endpoint: mean survival time, dose: 50.0 mg/kg/injection, schedule: Q01DX Z (ip), vehicle: saline 103 % of control | endpoint: mean survival time, dose: 64.0 mg/kg/injection, schedule: Q01DX008 (iv), vehicle: saline 102 % of control

CCCCOC(=O)COc1c(Cl)ccc(Cl)c1Cl
inactive: endpoint: mean survival time, dose: 100.0 mg/kg/injection, schedule: Q04DX002 (ip), vehicle: saline with Tween-80 102 % of control | endpoint: mean survival time, dose: 200.0 mg/kg/injection, schedule: Q04DX002 (ip), vehicle: saline with Tween-80 95 % of control
